Source: the supplement of paper PMC11208160

Experiment: recombinant UMI read abundance after kanamycin selection (control-corrected) (log10(CPM+1)); higher = more efficient recombination; extreme values may be limits of the assay; sequences stand for … in AGTGCAGAGAAAATCGGCCAGTTTTCTCTGCCTGCAGTCCGCATGCCGTGGGACCCCTTGGGTTCTAACCTGTTGCCTAGATTTATGCAGCGGACTGCCTTTCTCCCAAAGTGATAAACCGG…AGGTTGGTTTCACT; site = the 11-nt donor
Method in brief: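 Pooled Escherichia coli screen of donor and donor-binding-loop pairs for the IS621 bridge recombinase. Each pair sits with a 12-nt UMI on a plasmid carrying a promoterless kanamycin gene. The library was co-electroporated with a target plasmid encoding a fixed target and T7-inducible recombinase, then plated with IPTG (0.07 mM) plus kanamycin, or unselected, each in two replicates. Recombinant UMIs were PCR-amplified across the donor–target junction and sequenced. Counts became CPM, averaged over replicates, scaled by control-derived factors and reported as log10(CPM+1).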
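Also: IS621 bridge recombinase in Escherichia coli cells against a fixed T5 target plasmid.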

Sequence | recombinant UMI read abundance (log10)
CGGGAACCATGGACCGGTTTTCCCGGTAATCCGTATTTGAT (site CGGGAGCCTAT) | 0
GCCCCTACATGGACCGGTTTTCCCGGTAATCCGTATTTGCC (site GCCCCTACTGG) | 2.33
AGGACTACATGGACCGGTTTTCCCGGTAATCCGTATTTGGC (site AGGACTACTGC) | 2.95
ACATATCCATGGACCGGTTTTCCCGGTAATCCGTATTTGAC (site ACACATCCTGT) | 0.817
CACTGACCATGGACCGGTTTTCCCGGTAATCCGTATTTGGG (site CACTGACCTCC) | 0.00646
ACGGTAGCATGGACCGGTTTTCCCGGTAATCCGTATTTGCA (site ACAGTATCTTG) | 2.05
CAGTTGGCATGGACCGGTTTTCCCGGTAATCCGTATTTGGA (site CAATTGGCTTC) | 0.882
TGGAAGACATGGACCGGTTTTCCCGGTAATCCGTATTTGCG (site AGGAAGACTTG) | 0
GCCAAGCCATGGACCGGTTTTCCCGGTAATCCGTATTTGTA (site GCCATGCCTTA) | 0.00407
CGTGGACCATGGACCGGTTTTCCCGGTAATCCGTATTTGGG (site CGTGGACCTCC) | 0.0154
TCCACCGCATGGACCGGTTTTCCCGGTAATCCGTATTTGGG (site TCCACCGCTCG) | 0.0231
CGATCACCATGGACCGGTTTTCCCGGTAATCCGTATTTGCC (site CGATCACCTGG) | 0
TTGGCGGCATGGACCGGTTTTCCCGGTAATCCGTATTTGCT (site TTAGCGGCTAG) | 1.3
CCATTCCCATGGACCGGTTTTCCCGGTAATCCGTATTTGCT (site CGATTCCCTAG) | 0
ATAAGCACATGGACCGGTTTTCCCGGTAATCCGTATTTGAT (site ATAAGCACTAT) | 2.23
CGATCGACATGGACCGGTTTTCCCGGTAATCCGTATTTGTC (site CGATCGACTAA) | 0.00466
GAGCTCACATGGACCGGTTTTCCCGGTAATCCGTATTTGAT (site GCGCTCACTAT) | 0.011
ACCACGCCATGGACCGGTTTTCCCGGTAATCCGTATTTGTA (site ACCACGCCTTA) | 0.0245
TGTACACCATGGACCGGTTTTCCCGGTAATCCGTATTTGAT (site TGTACACCTTT) | 0.00971
TGTTTCCCATGGACCGGTTTTCCCGGTAATCCGTATTTGTA (site TGTTTCCCTTA) | 0.152
AGTACACCATGGACCGGTTTTCCCGGTAATCCGTATTTGAC (site CGTACACCTGT) | 0.0138
ACCGACTCATGGACCGGTTTTCCCGGTAATCCGTATTTGCC (site ACCGACTCTGG) | 1.78
GTTTCAACATGGACCGGTTTTCCCGGTAATCCGTATTTGAC (site GTTTCAACTGT) | 0.631
CACCCGACATGGACCGGTTTTCCCGGTAATCCGTATTTGTA (site CACCCGACTTA) | 1.32
GCGAACCCATGGACCGGTTTTCCCGGTAATCCGTATTTGAA (site GCGAACCCTTT) | 2.49

Sequence | recombinant UMI read abundance (log10)
TTCACCGCATGGACCGGTTTTCCCGGTAATCCGTATTTGCG (site TTCACCGCTCG) | 0.0246
CCTAAAGCATGGACCGGTTTTCCCGGTAATCCGTATTTGAT (site CCTTAAGCTAT) | 0.0074
TAGGAATCATGGACCGGTTTTCCCGGTAATCCGTATTTGCC (site TAGGAATCTTG) | 1.74
GCATGGGCATGGACCGGTTTTCCCGGTAATCCGTATTTGAG (site GCATGGGCTCT) | 1.33
ATGATCTCATGGACCGGTTTTCCCGGTAATCCGTATTTGCG (site ATGATCTCTCG) | 3.11
AGAAAGGCATGGACCGGTTTTCCCGGTAATCCGTATTTGCC (site AGAAAGGCTGG) | 1.78
CGGCAGTCATGGACCGGTTTTCCCGGTAATCCGTATTTGCC (site CGGGAGTCTGG) | 0
GGTGGAACATGGACCGGTTTTCCCGGTAATCCGTATTTGTT (site TGTGGAACTAA) | 0.00382
GGAACATCATGGACCGGTTTTCCCGGTAATCCGTATTTGCT (site GGAACATCTAG) | 2.03
TGCTAATCATGGACCGGTTTTCCCGGTAATCCGTATTTGCT (site TGCTAATCTAG) | 1.08
TATTAACCATGGACCGGTTTTCCCGGTAATCCGTATTTGCC (site TATTAACCTGG) | 0
GGGAGTTCATGGACCGGTTTTCCCGGTAATCCGTATTTGCA (site GGGAGTTCTTG) | 1.13
ATATGATCATGGACCGGTTTTCCCGGTAATCCGTATTTGGG (site ATATGATCTCC) | 1.26
GGAGACACATGGACCGGTTTTCCCGGTAATCCGTATTTGTC (site GGAGACACTGA) | 2.59
TCCAAGTCATGGACCGGTTTTCCCGGTAATCCGTATTTGCC (site TCCAAGTCTGG) | 0
CTAGTATCATGGACCGGTTTTCCCGGTAATCCGTATTTGAC (site CAAGTATCTGT) | 2.47
AATGTGTCATGGACCGGTTTTCCCGGTAATCCGTATTTGCC (site AATGTGTCTGC) | 0
CCTAAAGCATGGACCGGTTTTCCCGGTAATCCGTATTTGAT (site CCTAAAGCTAA) | 0
TCAGAGACATGGACCGGTTTTCCCGGTAATCCGTATTTGAG (site TCAGAGACTCC) | 0.288
ACGTCACCATGGACCGGTTTTCCCGGTAATCCGTATTTGTA (site ACGTCACCTTA) | 0.0617
CTAGTAGCATGGACCGGTTTTCCCGGTAATCCGTATTTGAA (site CTAGTAGCTTT) | 2.15
TGCATGCCATGGACCGGTTTTCCCGGTAATCCGTATTTGGT (site TGCATGCCTAC) | 0.0134
ATAGACTCATGGACCGGTTTTCCCGGTAATCCGTATTTGGT (site ATAGACTCTAC) | 2.79
TCATACTCATGGACCGGTTTTCCCGGTAATCCGTATTTGCG (site TCATACTCTCG) | 2.57
TTGAATCCATGGACCGGTTTTCCCGGTAATCCGTATTTGGA (site TTGAATCCTTC) | 0.123

Sequence | recombinant UMI read abundance (log10)
GACCACCCATGGACCGGTTTTCCCGGTAATCCGTATTTGTT (site GGCCACCCTAA) | 0.00672
CAAGCGCCATGGACCGGTTTTCCCGGTAATCCGTATTTGAG (site CAAGCGCCTCC) | 0.0109
ATCTATACATGGACCGGTTTTCCCGGTAATCCGTATTTGAC (site AACTATACTGT) | 0.0062
GGGGCAGCATGGACCGGTTTTCCCGGTAATCCGTATTTGCA (site GGGGCAACTTG) | 1.47
CTGGAAACATGGACCGGTTTTCCCGGTAATCCGTATTTGCA (site CTGGAGACTTG) | 1.43
CTAGAATCATGGACCGGTTTTCCCGGTAATCCGTATTTGTC (site CTAGTATCTGT) | 0.307
CTAGTATCATGGACCGGTTTTCCCGGTAATCCGTATTTGAC (site GTATTATCTGT) | 0
GACAAACCATGGACCGGTTTTCCCGGTAATCCGTATTTGTT (site GACAAACCTAA) | 0
CGCCTTTCATGGACCGGTTTTCCCGGTAATCCGTATTTGAC (site GGCCTTTCTGT) | 0
CGGCAGTCATGGACCGGTTTTCCCGGTAATCCGTATTTGCC (site CGGCAGTCTGG) | 2.22
CCTAATACATGGACCGGTTTTCCCGGTAATCCGTATTTGGC (site CCTACTACTGC) | 0.0125
TAGCAAGCATGGACCGGTTTTCCCGGTAATCCGTATTTGAA (site TAGCAAGCTTT) | 1.45
GAGCTCACATGGACCGGTTTTCCCGGTAATCCGTATTTGAT (site GAGCGCACTAT) | 0
TTTCAGACATGGACCGGTTTTCCCGGTAATCCGTATTTGTT (site TTTCAGACTAA) | 0.004
CTGCTACCATGGACCGGTTTTCCCGGTAATCCGTATTTGCA (site CTGCTACCTAG) | 0.00394
TAGTGAGCATGGACCGGTTTTCCCGGTAATCCGTATTTGGG (site TATTGAGCTCC) | 0
GGATCCCCATGGACCGGTTTTCCCGGTAATCCGTATTTGCT (site GGATCCCCTAG) | 0.0066
TAAGCGCCATGGACCGGTTTTCCCGGTAATCCGTATTTGTG (site GAAGCGCCTCA) | 0.032
CCTAAAGCATGGACCGGTTTTCCCGGTAATCCGTATTTGAT (site CCTCAAGCTAT) | 0.00248
AGGAAAACATGGACCGGTTTTCCCGGTAATCCGTATTTGCA (site AGGAATACTTG) | 0
GGAGTGGCATGGACCGGTTTTCCCGGTAATCCGTATTTGGT (site GGAGCGGCTAC) | 0.00445
GTGGAGGCATGGACCGGTTTTCCCGGTAATCCGTATTTGTG (site GGGGAGGCTCA) | 0
CACTAGCCATGGACCGGTTTTCCCGGTAATCCGTATTTGCC (site CTCTAGCCTGG) | 0
CGCCGTACATGGACCGGTTTTCCCGGTAATCCGTATTTGAT (site CGCCGTACTAG) | 0
CGTACTCCATGGACCGGTTTTCCCGGTAATCCGTATTTGCA (site CGTACTCCTTG) | 0.892
